The values below come from patent EP0528699B1, “Saishin N derivatives, process for their preparation and anti-ulcer agents containing them” (TOKYO TANABE COMPANY LIMITED, priority 1991, dated 1993).

For experiment [1], the system named is Hydrochloric acid-Ethanol-Induced Ulcers. The experiment can be described thus: Hydrochloric acid-Ethanol-Induced Ulcers. It is filed as in vivo, male Wister rats. The following applies: Rattus norvegicus, intraduodenal, read-out: Inhibition ratio(%); for inhibition in vivo at 10 mg/kg: dose 10 mg/kg intraduodenally one hour before hydrochloric acid - 60% ethanol. As to the method: (§1) Experiments on Hydrochloric acid-Ethanol-Induced Ulcers, Aspirin-Induced Ulcers, Water-Immersion stress-Induced Ulcers, Shay's Ulcers and Serotonin-Induced Ulcers were carried out using male Wister rats weighing about 200g in groups of six. Experiments on Ischemia-Reperfusion -Induced Gastric Lesions were carried out using male SD rats weighing about 250g in groups of six. Other than for the tests on Ischemia-Reperfusion-Induced Gastric Lesions Models, the test compounds were prepared by mixing thoroughly with polyethyleneglycol and 0.5% sodium carboxymethyl cellulose solution and emulsifying vigorously. Activities against respective ulcer models were evaluated by an inhibiting ratio obtained by dividing the difference between the ulceration indexes of the non-administered group and the test compound group by the non-administered group.
To each rat which had been fasted for 24 hours was orally administered 0.5ml of a mixed solution of 150 mM hydrochloric acid - 60% ethanol per 100g of weight. Each rat was slaughtered after one hour, a length of ulcer formed at the fundus gland area of stomach was measured and ulceration index was calculated based on the length. The test compound was administered intraduodenally one hour or three hours before the administration of mixed solution of hydrochloric acid - 60% ethanol.

Experiment [2] deals with Water-Immersion stress-Induced Ulcers. The experiment can be described thus: Water-Immersion stress-Induced Ulcers. It is filed as in vivo, male Wister rats. The following applies: Rattus norvegicus, po, 10 h, read-out: Water-Immersion Stress, inhibiting ratio; for inhibition in vivo at 20 mg/kg: dose 20 mg/kg orally 10 minutes before the exposure to stress; for inhibition in vivo at 50 mg/kg: dose 50 mg/kg orally 10 minutes before the exposure to stress. The procedure:
as §1
Each rat which had been fasted for 15 hours was immobilized in a stress cage and immersed to chest depth in a water bath at 21°C. Each rat was slaughtered after 10 hours, a length of ulcer formed at the fundus gland area of stomach was measured and ulceration index was calculated based on the length. The test compound was administered orally 10 minutes before the exposure to stress.
(§2) The results of Aspirin-Induced Ulcers, Water-immersion stress-Induced Ulcers, Shay's Ulcers, Serotonin-induced Ulcers and Ischemia-Reperfusion-Induced Gastric lesions are shown in Table 3.

For the next experiment, the system named is Shay's Ulcers. Description: Shay's Ulcers. It is filed as in vivo, male Wister rats. As to conditions: Rattus norvegicus, intraduodenal, 14 h, read-out: Shay, inhibiting ratio; for inhibition in vivo at 50 mg/kg: dose 50 mg/kg intraduodenally immediately after the ligation; for inhibition in vivo at 300 mg/kg: dose 300 mg/kg intraduodenally immediately after the ligation. As to the method:
as §1
In each rat which had been fasted for 48 hours, the pyloric end of stomach was ligated, and each was kept without giving any food or water for 14 hours. Each rat was then slaughtered, and area of ulcer formed in the forestomach was measured and ulceration inded was calculated based on the area. The test compound was administered intraduodenally immediately after the ligation.
as §2

For the next experiment, the system named is Serotonin-Induced Ulcers. Description: Serotonin-Induced Ulcers. It is filed as in vivo, male Wister rats. The following applies: Rattus norvegicus, 4.5 h, read-out: Serotonin, inhibiting ratio; for inhibition in vivo at 20 mg/kg: dose 20 mg/kg intraduodenally 30 minutes before Serotonin creatinine sulfate 30 mg/kg subcutaneously; for inhibition in vivo at 50 mg/kg: dose 50 mg/kg intraduodenally 30 minutes before Serotonin creatinine sulfate 30 mg/kg subcutaneously. The procedure: as §1
To each rat which had been fasted for 24 hours, 30 mg/kg of a solution of serotonin creatinine sulfate in a saline solution was administered subcutaneously. Each rat was then slaughtered after 4 and a half hours and area of gastric mucosal lesion formed facing the center line of greater curvature of the corpus ventriculi of stomach was measured and ulceration index was calculated based on the area. The test compound was administered intraduodenally 30 minutes before the administration of the Serotonin creatinine sulfate.
as §2

The test system of experiment [3] is Ischemia-Reperfusion-Induced Gastric Lesions. The experiment can be described thus: Ischemia-Reperfusion-Induced Gastric Lesions. It is filed as in vivo, male SD rats. As to conditions: dose 40 mg/kg in dimethylsulfoxide from the caudal artery 30 minutes before beginning collection of the blood. As to the method: as §1
Each rat which had been fasted for 24 hours was anesthetized intraperitoneally with Nembutal and immobilized on a constant temperature pad in a dorsal position. After tracheotomy was performed, blood pressure was measured via a transducer for blood pressure from a cannula inserted in right carotid. The abdomen was opened, and the gastroesophageal junction was ligated. A tube was then passed through the duodenostomy into the stomach and the gastric lumen was lavaged with warm saline. 1 ml of 0.1N hydrochloric acid per 100g body weight was instilled into the stomach via the gastric tube and the pylorus was ligated. When the blood pressure became stable, 2% of weight (w/w) of the blood was collected from a cannula inserted in the left carotid into a syringe containing a heparin added saline solution. After 20 minutes, the collecting blood was retransfused and each rat was left to stand for 20 minutes, and slaughtered and the area of gastric mucosal lesions was measured and ulceration index was calculated based on the area. The test compound was dissolved in dimethylsulfoxide and administered at a dose of 40 mg/kg from the caudal artery 30 minutes before beginning collection of the blood.
as §2

The subject of a further experiment is Aspirin-Induced Ulcers. The experiment can be described thus: Aspirin-Induced Ulcers. It is filed as in vivo, male Wister rats. As to conditions: Rattus norvegicus, 9 h, 5 minutes before 150 mg/kg of aspirin orally, read-out: Aspirin, inhibiting ratio; for inhibition in vivo at 50 mg/kg: dose 50 mg/kg intraduodenally at pylorus ligation. The procedure: as §1
In each rat which had been fasted for 24 hours, the pyloric end of the stomach was ligated, and simultaneously the test compound was administered intraduodenally, and after 5 minutes, 150 mg/kg of aspirin was administered orally, respectively. After 9 hours from ligation, each rat was slaughtered, a length of ulcer formed at the fundus gland area of stomach was measured and ulceration index was calculated based on the length.
as §2

[4] abbreviates: 3 h, Table 1, dose 20 mg/kg intraduodenally three hours before hydrochloric acid - 60% ethanol.

Where a name gives a salt, the structure may show the parent alone. Read-outs that look alike come from different tables or passages of the source. Marks after values point to notes of the source that are not given here.

As to `COC12CC(C)(C)C(O1)C(O)CC2C` (stereo not drawn) [AU105B, 2,4-cis-1-methoxy-2,6.6-trimethyl-8-oxabicyclo [3.2.1] octan-4-ol], the inhibition in vivo at 10 mg/kg in experiment [1] (1 h, Table 2) is 86%. Moreover, the inhibition in vivo at 20 mg/kg in experiment [1] (setting [4]) came to 63%; in experiment [2] it was 65%; in the experiment on Serotonin-Induced Ulcers, 80%. In addition, the inhibition in vivo at 50 mg/kg with Shay's Ulcers turned out to be 44%. Moreover, in experiment [3], the “Ischemia-Reperfusion, inhibiting ratio” value is reported as 52(40)*.

`COC1C=C(C)C(=O)CC(C)(C)C1O` (centres unmarked) [AU154, 5-hydroxy-4-methoxy-2,6,6-trimethyl-2-cyclohepten-1-one]: the inhibition in vivo at 10 mg/kg in experiment [1] (1 h, Table 2) came out at 67%. Further, the inhibition in vivo at 20 mg/kg in experiment [1] (setting [4]) turned out to be 21%; in the experiment on Serotonin-Induced Ulcers, 46%. The inhibition in vivo at 50 mg/kg in experiment [2] came out at 17%; in the experiment on Shay's Ulcers, 22%.

Regarding `CC1=CC(OC(=O)c2ccccc2)C(O)C(C)(C)CC1=O` (centres unmarked) [AU190, 4-benzoyloxy-5-hydroxy-2,6,6-trimethyl-2-cyclohepten-1-one], the results for the inhibition in vivo at 20 mg/kg (in experiment [1] (setting [4]); with Serotonin-Induced Ulcers) were 66% and 69%, respectively. Besides, the inhibition in vivo at 50 mg/kg with Aspirin-Induced Ulcers turned out to be 55%; in experiment [2], 45%; in the experiment with Shay's Ulcers it was 55%.

`CC1=CC(O)C(OC(=O)C=Cc2ccccc2)C(C)(C)CC1=O` (centres unmarked) [AU205, 5-cinnamoyloxy-4-hydroxy-2,6,6-trimethyl-2-cyclohepten-1-one]: the results for the inhibition in vivo at 20 mg/kg (in experiment [1] (setting [4]); in experiment [2]; in the experiment with Serotonin-Induced Ulcers) were 83%, 42% and 80%, respectively. Further, the inhibition in vivo at 50 mg/kg came out at 53% with Aspirin-Induced Ulcers and 50% in the experiment with Shay's Ulcers.

`CC1=CC(OC(=O)c2ccc([N+](=O)[O-])cc2)C(O)C(C)(C)CC1=O` (centres unmarked) [AU212, 5-hydroxy-4-(4-nitrobenzoyloxy)-2,6,6-trimethyl-2-cyclohepten-1-one]: the inhibition in vivo at 20 mg/kg in experiment [1] (setting [4]) came to 90%; with Aspirin-Induced Ulcers (dose 20 mg/kg intraduodenally at pylorus ligation) it was 46%; in experiment [2], 48%; with Serotonin-Induced Ulcers it was 71%. Besides, in the experiment with Shay's Ulcers, the inhibition in vivo at 50 mg/kg stood at 75%. Besides, the “Ischemia-Reperfusion, inhibiting ratio” value in experiment [3] is given as 63(40)**.

Regarding `CC1=CC(OC(=O)c2ccc(N)cc2)C(O)C(C)(C)CC1=O` (centres unmarked) [AU215, 4-(4-aminobenzoyloxy)-5-hydroxy-2,6,6-trimethyl-2-cyclohepten-1-one], the inhibition in vivo at 20 mg/kg came to 56% in experiment [1] (setting [4]), 45% in experiment [2] and 81% with Serotonin-Induced Ulcers. Further, the inhibition in vivo at 50 mg/kg was 66% with Aspirin-Induced Ulcers and 73% with Shay's Ulcers. In experiment [3], the “Ischemia-Reperfusion, inhibiting ratio” value is recorded as 90(40)**.

On to `COC1C(O)C=C(C)C(=O)CC1(C)C` (centres unmarked) [AU222, 4-hydroxy-5-methoxy-2,6,6-trimethyl-2-cyclohepten-1-one], for which the inhibition in vivo at 20 mg/kg was found to be 54% in experiment [1] (setting [4]), 34% in experiment [2] and 84% in the experiment on Serotonin-Induced Ulcers. Besides, the inhibition in vivo at 50 mg/kg with Aspirin-Induced Ulcers came to 28%; in the experiment with Shay's Ulcers, 58%.

In the case of `COC12CC(C)(C)C(O1)C(OC(=O)c1ccc(N)cc1)C=C2C` (centres unmarked) [AU245, 4-(4-aminobenzoyloxy)-1-methoxy-2,6,6-trimethyl-8-oxabicyclo [3.2.1] oct-2-ene], the inhibition in vivo at 20 mg/kg in experiment [1] (setting [4]) was 58%; in experiment [2] it was 38%; in the experiment with Serotonin-Induced Ulcers, 38%. Further, the inhibition in vivo at 50 mg/kg in the experiment with Aspirin-Induced Ulcers amounted to 63%; in the experiment on Shay's Ulcers, 35%. In addition, in experiment [3], the “Ischemia-Reperfusion, inhibiting ratio” value is listed as 93(40)**.

Take `COC1C=C(C)C(=O)CC(C)(C)C1OC(=O)c1ccc([N+](=O)[O-])cc1[N+](=O)[O-]` (centres unmarked) [AU407, 5-(2,4-dinitrobenzoyloxy)-4-methoxy-2,6,6-trimethyl-2-cyclohepten-1-one]: the inhibition in vivo at 20 mg/kg in experiment [1] (setting [4]) amounted to 82%; in the experiment on Serotonin-Induced Ulcers, 41%. Also, the inhibition in vivo at 50 mg/kg with Aspirin-Induced Ulcers came to 71%; in experiment [2], 50%.

As for `COC1C=C(C)C(=O)CC(C)(C)C1OC(=O)c1ccc(N)cc1N` (centres unmarked) [AU408, 5-(2,4-diaminobenzoyloxy)-4-methoxy-2,6,6-trimethyl-2-cyclohepten-1-one], the inhibition in vivo at 20 mg/kg in experiment [1] (setting [4]) was 58%; in the experiment with Serotonin-Induced Ulcers it was 44%. Besides, the inhibition in vivo at 50 mg/kg came to 73% with Aspirin-Induced Ulcers, 56% in experiment [2] and 43% with Shay's Ulcers. For the same molecule, the “Ischemia-Reperfusion, inhibiting ratio” value in experiment [3] is 75(40)**.

Regarding `CC1=CC(OC(=O)c2cccn2C)C(O)C(C)(C)CC1=O` (centres unmarked) [AU501, 4-(1-methyl-2-pyrrolylcarbonyloxy)-5-hydroxy-2,6,6-trimethyl-2-cyclohepten-1-one], the inhibition in vivo at 20 mg/kg in experiment [1] (setting [4]) was found to be 56%. Moreover, the inhibition in vivo at 50 mg/kg with Aspirin-Induced Ulcers is 30%; in experiment [2], 22%; in the experiment with Serotonin-Induced Ulcers, 55%. In experiment [3], the “Ischemia-Reperfusion, inhibiting ratio” value is given as 77(40)**.

As for `NC[C@H]1CC[C@H](C(=O)Oc2ccc(CCC(=O)O)cc2)CC1` [Cetraxatehydrochloride, reference compound], the results for the inhibition in vivo at 300 mg/kg (in the experiment with Aspirin-Induced Ulcers (dose 300 mg/kg intraduodenally at pylorus ligation); in experiment [2] (dose 300 mg/kg orally 10 minutes before the exposure to stress); with Shay's Ulcers) were 33%, 45% and 11%, respectively.

For `CC1=CC(O)C(O)C(C)(C)CC1=O` (centres unmarked) [Saishin N, 4,5-dihydroxy-2,6,6-trimethyl-2-cycloheptene-1-one], the inhibition in vivo at 10 mg/kg in experiment [1] (1 h, Table 2) amounted to 35%. The inhibition in vivo at 20 mg/kg in experiment [1] (1 h, Table 2, dose 20 mg/kg intraduodenally one hour before hydrochloric acid - 60% ethanol) came to 88%; in experiment [1] (setting [4]), 15%; with Serotonin-Induced Ulcers it was 13%. The inhibition in vivo at 50 mg/kg was 83% in experiment [1] (3 h, Table 1, dose 50mg/kg intraduodenally three hours before hydrochloric acid - 60% ethanol); 52% in the experiment with Aspirin-Induced Ulcers; 49% in experiment [2]; 36% with Serotonin-Induced Ulcers. Besides, the inhibition in vivo at 100 mg/kg in the experiment on Aspirin-Induced Ulcers (dose 100 mg/kg intraduodenally at pylorus ligation) is 60%; in experiment [2] (dose 100 mg/kg orally 10 minutes before the exposure to stress), 62%; in the experiment on Shay's Ulcers (dose 100 mg/kg intraduodenally immediately after the ligation) it was 49%. Moreover, the inhibition in vivo at 300 mg/kg in the experiment with Shay's Ulcers was found to be 58%.
